Experimental findings from ChEMBL document CHEMBL4130627, “Prodrugs of the Phosphoribosylated Forms of Hydroxypyrazinecarboxamide Pseudobase T-705 and Its De-Fluoro Analogue T-1105 as Potent Influenza Virus Inhibitors” (J Med Chem, 2018) are described below.

Data set [1] can be described thus: Inhibition of Influenza virus A/X-31 RNA dependent RNA polymerase using ApG primer [adenyl (3'-5') guanosine] and [8-3H]GTP after 1 hr by filter-based assay. Also noted: species or system Influenza A virus (A/X-31(H3N2)).
Data set [2] can be described thus: Drug metabolism in MDCK cells assessed as T-1105-RDP formation at 450 uM up to 4 hrs by RP-HPLC-UV analysis. The data set is classed as ADME, cell-based, Canis lupus familiaris. The following applies: dog.
A short description of data set [3]: Drug metabolism in MDCK cells assessed as 4-((((((2R,3S,4R,5R)-5-(3-carbamoyl-2-oxopyrazin-1(2H)-yl)-3,4-dihydroxytetrahydrofuran-2-yl)methoxy)(hydroxy)phosphoryloxy)(hydroxy)phosphoryloxy)methyl)phenyl decanoate formation at 450 uM up to 4 hrs by RP-HPLC-UV analysis. As to conditions: dog. The data set is classed as ADME, cell-based, Canis lupus familiaris.
The test system of data set [4] is MDCK. The data set is classed as cell-based, Canis lupus familiaris. The following applies: dog, 2 h, 500 µM.
Data set [5] relates to Influenza A virus. Put plainly: microbe, parasite or virus in culture. As to conditions: MDCK, 72 h.
Description: Antiviral activity against Influenza virus A/X-31 infected in MDCK cells assessed as reduction in viral replication at 3 days post infection by formazan-based MTS assay
The nature of data set [6]: Inhibition of Influenza virus B/Ned/537/05 RNA dependent RNA polymerase using ApG primer [adenyl (3'-5') guanosine] and [8-3H]GTP after 1 hr by filter-based assay.
For data set [7], the system named is MDCK. Put plainly: Prodrug activation in MDCK cells assessed as T-1105-RTP formation at 450 uM up to 4 hrs by RP-HPLC-UV analysis. The following applies: dog. It is filed as cell-based, Canis lupus familiaris.
Data set [8] in a line: Cytotoxicity against HGPRT deficient 6-thioguanine-resistant MDCK cells assessed as change in cell morphology after 3 days by microscopic analysis. The data set is classed as cell-based, Canis lupus familiaris. As to conditions: dog.
For data set [9], the system named is Influenza B virus. Put plainly: microbe, parasite or virus in culture. As to conditions: Ned/537/05, MDCK, 72 h.
Description: Antiviral activity against Influenza virus B/Ned/537/05 infected in MDCK cells assessed as reduction in viral replication at 3 days post infection by formazan-based MTS assay
A short description of data set [10]: Cytotoxicity against MDCK cells assessed as change in cell morphology after 3 days by microscopic analysis. It is filed as cell-based, Canis lupus familiaris. The following applies: dog.
For data set [11], the system named is MDCK. Description: Prodrug activation in MDCK cells assessed as T-1105-RMP formation at 450 uM up to 4 hrs by RP-HPLC-UV analysis. As to conditions: dog. The data set is classed as cell-based, Canis lupus familiaris.
In data set [12] the test system is Influenza A virus. Put plainly: microbe, parasite or virus in culture. The following applies: MDCK, 72 h. The source holds these as a separate data set.
Description: Antiviral activity against Influenza virus A/X-31 infected in MDCK cells assessed as reduction in viral replication at 3 days post infection by microscopic analysis
Data set [13] concerns Influenza B virus. Put plainly: microbe, parasite or virus in culture. The following applies: Ned/537/05, MDCK, 72 h. The source holds these as a separate data set.
Description: Antiviral activity against Influenza virus B/Ned/537/05 infected in MDCK cells assessed as reduction in viral replication at 3 days post infection by microscopic analysis
The subject of data set [14] is MDCK. Put plainly: Prodrug activation in MDCK cells assessed as T-1105-RDP formation at 500 uM after 2 hrs by RP-HPLC-UV analysis. As to conditions: dog. The data set is classed as cell-based, Canis lupus familiaris.
The nature of data set [15]: Cytotoxicity against MDCK cells assessed as reduction in cell viability after 3 days by formazan-based MTS assay. Also noted: species or system Canis lupus familiaris. The following applies: dog.
Data set [16] can be described thus: Half life of the compound in 25 mM phosphate buffe at pH 1.5 to 7.3 by RP-HPLC analysis. The data set is classed as physicochemical. The following applies: phosphate buffer.

In general, IC50 refers to the concentration that inhibits the measured activity by half. A low value points to greater potency. On to `Nc1nc2c(ncn2[C@@H]2O[C@H](COP(=O)(O)OP(=O)(O)OP(=O)(O)O)C[C@H]2O)c(=O)[nH]1`, for which, in [1], 16 µM corresponded to half-maximal inhibition (IC50).
As usually defined, the EC50 is the midpoint of the concentration-response curve. A high value points to a less potent agent. What is called CC50 is the concentration giving 50% cytotoxicity. As for `CCCCCCCCCCCCCCC(=O)Oc1ccc(COP(=O)(OCc2ccc(OC(=O)CCCC)cc2)OP(=O)(O)OC[C@H]2O[C@@H](n3ccnc(C(N)=O)c3=O)[C@H](O)[C@@H]2O)cc1.CCN(CC)CC` (stereo partly drawn), the Drug metabolism entry is given as “Metabolite_Detected” in data set [2]; “Metabolite_Detected” in [3]; “Metabolite_Detected” in data set [4]; “Metabolite_Notdetected” in data set [7]; “Metabolite_Detected” in data set [11]; “Metabolite_Detected” in [14]. Moreover, the IC50 in [1] and in [6] was 49 to 126 µM throughout. The EC50 in data set [5] amounted to 1.6 µM; in data set [9], 0.58 µM; in [12] it was 1.5 µM; in [13], 0.67 µM. The MCC at 72 h in [8] is 16 µM; in data set [10] it was 21 µM. In addition, the CC50 at 72 h in data set [15] came to 31 µM.
As usually defined, the half-life is how long it takes for the measured level to halve. In the case of `COc1ccc2c(c1)COP(=O)(OC[C@@H]1C=C[C@H](n3cnc4c(N)ncnc43)O1)O2` (stereo partly drawn), the half-life in data set [16] fell in the range of 600 to 2700 min.
Consider `NC(=O)c1nc(F)cn([C@@H]2O[C@H](COP(=O)(O)OP(=O)(O)OP(=O)(O)O)[C@@H](O)[C@H]2O)c1=O`, for which the IC50 in data set [1] and in data set [6] was 2.7 µM throughout.
Consider `NC(=O)c1ncn([C@@H]2O[C@H](CO)[C@@H](O)[C@H]2O)n1` [RIBAVIRIN], for which the values for the EC50 in data set [5], in [9] and in [13] were 13 µM, 4.5 µM and 5.9 µM, respectively. The values for the MCC at 72 h in data set [8] and in data set [10] were 35 µM and 59 µM, respectively. Further, the CC50 at 72 h in data set [15] was > 100 µM.
As to `NC(=O)c1nc(Br)cn([C@@H]2O[C@H](CO)[C@@H](O)[C@H]2O)c1=O`, the EC50 in data set [5], in data set [9], in data set [12] and in data set [13] was > 250 µM throughout. The MCC at 72 h in data set [8] and in data set [10] was > 250 µM in each case. In data set [15], the CC50 at 72 h is > 250 µM.
`Cc1cccc2c1OP(=O)(OC[C@@H]1C=C[C@H](n3cnc4c(=O)[nH]cnc43)O1)OC2` (stereo partly drawn): in data set [16], the half-life lay in the range of 600 to 2700 min.
For `Nc1nc2c(ncn2[C@@H]2O[C@H](COP(=O)(O)OP(=O)(O)OP(=O)(O)O)[C@@H](O)[C@H]2F)c(=O)[nH]1`, the 50% inhibitory concentration (IC50) was 2.5 µM in data set [1] and 4.4 µM in data set [6].
As to `CCCCCCCCCCCCCCC(=O)Oc1ccc(COP(=O)(OCc2ccc(OC(=O)CCCC)cc2)OP(=O)(O)OP(=O)(O)OC[C@H]2O[C@@H](n3ccnc(C(N)=O)c3=O)[C@H](O)[C@@H]2O)cc1.CCN(CC)CC.CCN(CC)CC` (stereo partly drawn), the Drug metabolism entry is “Metabolite_Detected” in data set [2]; “Metabolite_Detected” in data set [3]; “Metabolite_Detected” in data set [4]; “Metabolite_Notdetected” in data set [7]; “Metabolite_Detected” in data set [11]; “Metabolite_Detected” in [14]. For the same molecule, the concentration for a half-maximal effect (EC50) in [5] was determined as 6.7 µM; in data set [9], 6 µM; in data set [12] it was 6 µM; in [13], 9.9 µM. In addition, the MCC at 72 h in [8] and in [10] was 16 µM in each case. Besides, the CC50 at 72 h in [15] turned out to be 38 µM.
On to `Nc1ncnc2c1ncn2[C@H]1CC[C@@H](COP2(=O)OCc3ccccc3O2)O1` (stereo partly drawn), for which the half-life in data set [16] lay within 600 to 2700 min.
With `CC(=O)O[C@@H]1[C@H](OC(C)=O)[C@@H](COP2(=O)OCc3cccc(C)c3O2)O[C@H]1n1ccnc(C(N)=O)c1=O` (stereo partly drawn), the EC50 was > 400 µM in data set [5], 128 µM in data set [9], > 400 µM in data set [12] and > 400 µM in data set [13]. The MCC at 72 h in data set [8] and in data set [10] was 400 µM in each case. The CC50 at 72 h in [15] was > 400 µM.
For `NC(=O)c1nccn([C@@H]2O[C@H](CO)[C@@H](O)[C@H]2O)c1=O`, the EC50 was found to be 52 µM in data set [5], 19 µM in data set [9], 58 µM in data set [12] and 24 µM in data set [13]. In addition, the MCC at 72 h in data set [8] and in [10] was > 250 µM each time. In addition, the CC50 at 72 h in data set [15] is > 250 µM.
